Experimental data taken from patent US6355799B1, “Substituted benzene compounds, process for their preparation, and herbicidal and defoliant compositions containing them” (ISK Americas Incorporated, priority 1997, dated 2002).

Key:
Type in all cases: in vivo
[1] = tested on: large crabgrass (Digitaria sanguinalis, DIGSA); test: Pre-emerge test, greenhouse herbicide activity screening; details: pre-emerge, 14 days after application, scale 0-100
Procedure, shortened: (§1)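 Fourteen days after spraying, crop and weed injury was graded visually from 0, no effect, to 100, every plant dead. Test substances were dissolved in acetone and applied at 15–1000 g ai/ha with a flat-fan nozzle. Application was either pre-emergence, one day after sowing, or post-emergence at the 2–3 leaf stage.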

[2] = tested on: sicklepod (Cassia obtusifolia, CASOB); test: as above; details: pre-emerge, 14 days after application, scale 0-100
Procedure, shortened: as §1

[3] = tested on: velvetleaf (Abutilon theophrasti, ABUTH); test: as above; details: pre-emerge, 14 days after application, scale 0-100
Procedure, shortened: as §1

[4] = tested on: green foxtail (Setaria viridis, SETVI); test: as above; details: pre-emerge, 14 days after application, scale 0-100
Procedure, shortened: as §1

[5] = tested on: lambsquarters (Chenopodium album, CHEAL); test: as above; details: pre-emerge, 14 days after application, scale 0-100
Procedure, shortened: as §1

[6] = tested on: johnsongrass (Sorghum halepense, SORHA); test: as above; details: pre-emerge, 14 days after application, scale 0-100
Procedure, shortened: as §1

[7] = tested on: ivyleaf morningglory (Ipomoea hederacea, IPOHE); test: as above; details: pre-emerge, 14 days after application, scale 0-100
Procedure, shortened: as §1

[8] = tested on: barnyardgrass (Echinochloa crus-galli, ECHCG); test: as above; details: pre-emerge, 14 days after application, scale 0-100
Procedure, shortened: as §1

[9] = tested on: redroot pigweed (Amaranthus retroflexus, AMARE); test: Post-emerge test, greenhouse herbicide activity screening; details: post-emerge, 14 days after application, rating scale 0-100
Procedure, shortened: (§2)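 Each test used a mechanized track sprayer delivering 187 l/ha of acetone solution at 15–1000 g ai/ha. Post-emerge foliage at 2–3 leaves was treated with added 0.25% v/v non-ionic surfactant and bottom-watered only. Injury was assessed on day 14, where 100 means total kill.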

[10] = tested on: large crabgrass (Digitaria sanguinalis, DIGSA); test: as above; details: post-emerge, 14 days after application, rating scale 0-100
Procedure, shortened: as §2

[11] = tested on: sicklepod (Cassia obtusifolia, CASOB); test: as above; details: post-emerge, 14 days after application, rating scale 0-100
Procedure, shortened: as §2

[12] = tested on: velvetleaf (Abutilon theophrasti, ABUTH); test: as above; details: post-emerge, 14 days after application, rating scale 0-100
Procedure, shortened: as §2

[13] = tested on: green foxtail (Setaria viridis, SETVI); test: as above; details: post-emerge, 14 days after application, rating scale 0-100
Procedure, shortened: as §2

[14] = tested on: lambsquarters (Chenopodium album, CHEAL); test: as above; details: post-emerge, 14 days after application, rating scale 0-100
Procedure, shortened: as §2

[15] = tested on: johnsongrass (Sorghum halepense, SORHA); test: as above; details: post-emerge, 14 days after application, rating scale 0-100
Procedure, shortened: as §2

[16] = tested on: ivyleaf morningglory (Ipomoea hederacea, IPOHE); test: as above; details: post-emerge, 14 days after application, rating scale 0-100
Procedure, shortened: as §2

[17] = tested on: barnyardgrass (Echinochloa crus-galli, ECHCG); test: as above; details: post-emerge, 14 days after application, rating scale 0-100
Procedure, shortened: as §2

[18] = tested on: redroot pigweed (Amaranthus retroflexus, AMARE); test: Pre-emerge test, greenhouse herbicide activity screening; details: pre-emerge, 14 days after application, scale 0-100
Procedure, shortened: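 Sandy loam pots; pre-emerge: sown 1 d pre-spray, surface-watered after, then bottom-watered. Post-emerge: sown 8–21 d before, 2–3 leaf stage, + 0.25% v/v NIS, bottom-watered. Acetone, 187 l/ha track spray, 15–1000 g ai/ha. 0–100 injury score, day 14.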

[19] = tested on: upland rice (Oryza sp., var. Tebonnet, RICE); test: Post-emerge test, crop safety; details: post-emerge, 14 days after application, rating scale 0-100
Procedure, shortened: as §1

[20] = tested on: field corn (Zea mays L., var. Dekalb 535, CORN); test: Post-emerge test, crop safety; details: post-emerge, 14 days after application, rating scale 0-100
Procedure, shortened: as §1

[21] = tested on: upland rice (Oryza sp., var. Tebonnet, RICE); test: Pre-emerge test, crop safety; details: pre-emerge, 14 days after application, scale 0-100
Procedure, shortened: (§3)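 Visual ratings on a 0-100 scale (0 no damage, 100 all plants dead) were taken at 14 days after treatment. Rates of 15-1000 g ai/ha in acetone, 187 l/ha, were sprayed onto soil one day after planting (pre-emerge) or onto 2-3 leaf plants with 0.25% v/v surfactant (post-emerge).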

[22] = tested on: field corn (Zea mays L., var. Dekalb 535, CORN); test: Pre-emerge test, crop safety; details: pre-emerge, 14 days after application, scale 0-100
Procedure, shortened: as §3

## COc1c(Br)cc(F)c(-n2c(=O)cc(C(F)(F)F)n(C)c2=O)c1N(C(=O)C=Cc1ccccc1)C(=O)C=Cc1ccccc1 [2-176]
[1]; 63 g ai/ha
  phytotoxicity rating DIGSA: 0
[1]; 250 g ai/ha
  phytotoxicity rating DIGSA: 20
[2]; 63 g ai/ha
  phytotoxicity rating CASOB: 0
[2]; 250 g ai/ha
  phytotoxicity rating CASOB: 0
[3]; 63 g ai/ha
  phytotoxicity rating ABUTH: 0
[3]; 250 g ai/ha
  phytotoxicity rating ABUTH: 70
[4]; 63 g ai/ha
  phytotoxicity rating SETVI: 0
[4]; 250 g ai/ha
  phytotoxicity rating SETVI: 20
[5]; 63 g ai/ha
  phytotoxicity rating CHEAL: 90
[5]; 250 g ai/ha
  phytotoxicity rating CHEAL: 100
[6]; 63 g ai/ha
  phytotoxicity rating SORHA: 0
[6]; 250 g ai/ha
  phytotoxicity rating SORHA: 0
[7]; 63 g ai/ha
  phytotoxicity rating IPOHE: 0
[7]; 250 g ai/ha
  phytotoxicity rating IPOHE: 40
[8]; 63 g ai/ha
  phytotoxicity rating ECHCG: 0
[8]; 250 g ai/ha
  phytotoxicity rating ECHCG: 0
[9]; 63 g ai/ha
  AMARE phytotoxicity rating: 100
[9]; 250 g ai/ha
  AMARE phytotoxicity rating: 100
[10]; 63 g ai/ha
  DIGSA phytotoxicity rating: 0
[10]; 250 g ai/ha
  DIGSA phytotoxicity rating: 0
[11]; 63 g ai/ha
  CASOB phytotoxicity rating: 10
[11]; 250 g ai/ha
  CASOB phytotoxicity rating: 30
[12]; 63 g ai/ha
  ABUTH phytotoxicity rating: 50
[12]; 250 g ai/ha
  ABUTH phytotoxicity rating: 90
[13]; 63 g ai/ha
  SETVI phytotoxicity rating: 0
[13]; 250 g ai/ha
  SETVI phytotoxicity rating: 0
[14]; 63 g ai/ha
  CHEAL phytotoxicity rating: 80
[14]; 250 g ai/ha
  CHEAL phytotoxicity rating: 90
[15]; 63 g ai/ha
  SORHA phytotoxicity rating: 0
[15]; 250 g ai/ha
  SORHA phytotoxicity rating: 0
[16]; 63 g ai/ha
  IPOHE phytotoxicity rating: 70
[16]; 250 g ai/ha
  IPOHE phytotoxicity rating: 95
[17]; 63 g ai/ha
  ECHCG phytotoxicity rating: 0
[17]; 250 g ai/ha
  ECHCG phytotoxicity rating: 0
[18]; 63 g ai/ha
  phytotoxicity rating AMARE: 50
[18]; 250 g ai/ha
  phytotoxicity rating AMARE: 90
[19]; 63 g ai/ha
  RICE phytotoxicity rating (crop damage): 10
[19]; 250 g ai/ha
  RICE phytotoxicity rating (crop damage): 30
[20]; 63 g ai/ha
  CORN phytotoxicity rating (crop damage): 0
[20]; 250 g ai/ha
  CORN phytotoxicity rating (crop damage): 5
[21]; 63 g ai/ha
  phytotoxicity rating RICE (crop damage): 0
[21]; 250 g ai/ha
  phytotoxicity rating RICE (crop damage): 0
[22]; 63 g ai/ha
  phytotoxicity rating CORN (crop damage): 0
[22]; 250 g ai/ha
  phytotoxicity rating CORN (crop damage): 0
